Data from ChEMBL document CHEMBL4229445, “Activity of steroid 4 and derivatives 4a-4f as inhibitors of the enzyme 5α-reductase 1” (Bioorg Med Chem, 2018).
Calls of active or inactive are those of the source. The rule behind the calls is not given here.

Key:
[1] = target: T1, 3-oxo-5-alpha-steroid 4-dehydrogenase 1 (Rattus norvegicus, UniProt P24008); assay: Inhibition of rat liver microsomes 5alpha-reductase1 using [1,2,6,7-3H]T as substrate measured after 60 mins by chromatographic method
T1 sequence (P24008 whole entry): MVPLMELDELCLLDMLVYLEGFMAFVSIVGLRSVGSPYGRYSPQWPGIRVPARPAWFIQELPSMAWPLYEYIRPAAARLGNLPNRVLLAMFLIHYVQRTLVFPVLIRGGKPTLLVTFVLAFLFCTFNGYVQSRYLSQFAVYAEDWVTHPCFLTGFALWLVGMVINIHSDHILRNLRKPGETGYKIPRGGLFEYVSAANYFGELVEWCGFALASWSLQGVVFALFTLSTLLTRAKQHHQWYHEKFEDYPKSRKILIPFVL

[2] = tested on: Syrian golden hamster; assay: Inhibition of testosterone-induced increase in seminal vesicle weight in golden hamster at 2 mg/kg, sc administered daily for 6 days measured post last dose; type: functional, organism-based; details: Mesocricetus auratus
[3] = tested on: Syrian golden hamster; assay: Inhibition of testosterone-induced flank organ enlargement in golden hamster assessed as reduction in diameter of pigmented spot at 2 mg/kg, sc administered daily for 6 days measured post last dose by calliper method; type: functional, organism-based; details: Mesocricetus auratus
[4] = target: T2, 3-oxo-5-alpha-steroid 4-dehydrogenase 2 (Homo sapiens) (UniProt P31213); assay: Inhibition of 5alpha-reductase2 (unknown origin)
T2 sequence (whole entry): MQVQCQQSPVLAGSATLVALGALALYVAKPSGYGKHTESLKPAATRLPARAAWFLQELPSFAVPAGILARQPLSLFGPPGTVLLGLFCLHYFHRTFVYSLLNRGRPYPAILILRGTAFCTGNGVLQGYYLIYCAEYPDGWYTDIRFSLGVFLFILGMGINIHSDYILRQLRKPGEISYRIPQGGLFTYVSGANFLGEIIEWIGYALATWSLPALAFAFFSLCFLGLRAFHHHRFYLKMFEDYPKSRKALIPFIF

[5] = tested on: Syrian golden hamster; assay: Inhibition of testosterone-induced increase in prostate weight in golden hamster at 2 mg/kg, sc administered daily for 6 days measured post last dose; type: functional, organism-based; details: Mesocricetus auratus
[6] = Drug metabolism in golden hamster plasma assessed as esterase-mediated 21(2-Oxo-ethyl-benzimidazol)-3-ceto, pregnen-16,17-diene formation at 4 mg/kg, sc measured after 60 to 120 mins in presence of testosterone by TLC method; type: ADME, organism-based, Mesocricetus auratus; details: in vivo
[7] = Stability of the compound in water; type: physicochemical; details: buffer
[8] = Drug metabolism in golden hamster plasma assessed as esterase-mediated 21(2-Oxo-ethyl-benzimidazol)-3-ceto, pregnen-16,17-diene formation by measuring retardation factor at 4 mg/kg, sc measured after 30 mins in presence of testosterone by TLC method; type: ADME, organism-based, Mesocricetus auratus; details: in vivo, 0.5 h
[9] = tested on: Syrian golden hamster; assay: Inhibition of testosterone-induced flank organ enlargement in golden hamster assessed as diameter of pigmented spot at 2 mg/kg, sc administered daily for 6 days measured post last dose by calliper method; type: functional, Mesocricetus auratus
[10] = tested on: Syrian golden hamster; assay: Inhibition of testosterone-induced increase in seminal vesicle weight in golden hamster at 1 mg/kg, sc administered daily for 6 days measured post last dose; type: functional, organism-based; details: Mesocricetus auratus
[11] = tested on: Syrian golden hamster; assay: Inhibition of testosterone-induced increase in prostate weight in golden hamster at 1 mg/kg, sc administered daily for 6 days measured post last dose; type: functional, organism-based; details: Mesocricetus auratus
[12] = tested on: Syrian golden hamster; assay: Inhibition of testosterone-induced flank organ enlargement in golden hamster assessed as reduction in diameter of pigmented spot at 1 mg/kg, sc administered daily for 6 days measured post last dose by calliper method; type: functional, organism-based; details: Mesocricetus auratus

IC50 [1]	inhibition [4]	Drug metabolism [6]	Stability [7]	Rf [8]	IC50 ([1]; read-out: IC50) [µM]	Compound	inhibition [2]	inhibition [3]	inhibition [5]	Activity [9] [mm]	inhibition [10]	inhibition [11]	inhibition [12]
Not Active	inactive	Metabolite_Detected	Stable	–	–	Cc1ccc(C(=O)O[C@H]2CC[C@@]3(C)C(=CC[C@@H]4[C@@H]3CC[C@]3(C)C(n5cnc6ccccc65)=C(C=O)C[C@@H]43)C2)cc1	Active	Active	Active	–	–	–	–
Not Active	inactive	–	Stable	0.42	–	C[C@]12CC[C@H](OC(=O)c3ccc(I)cc3)CC1=CC[C@@H]1[C@@H]2CC[C@]2(C)C(n3cnc4ccccc43)=C(C=O)C[C@@H]12	Active	Active	Active	–	–	–	–
Not Active	inactive	Metabolite_Detected	Stable	–	–	C[C@]12CC[C@H](OC(=O)c3ccccc3)CC1=CC[C@@H]1[C@@H]2CC[C@]2(C)C(n3cnc4ccccc43)=C(C=O)C[C@@H]12	Active	Active	Active	–	–	–	–
–	inactive	–	Unstable	0.42	40	C[C@]12CC[C@H](OC(=O)c3ccc(F)cc3)CC1=CC[C@@H]1[C@@H]2CC[C@]2(C)C(n3cnc4ccccc43)=C(C=O)C[C@@H]12	Active	–	Active	1.7	–	–	–
Not Active	inactive	Metabolite_Detected	Stable	0.42	–	C[C@]12CC[C@H](OC(=O)c3ccc(Br)cc3)CC1=CC[C@@H]1[C@@H]2CC[C@]2(C)C(n3cnc4ccccc43)=C(C=O)C[C@@H]12	Active	Active	Active	–	–	–	–
–	inactive	–	–	–	0.291	C[C@]12CC[C@H](O)CC1=CC[C@@H]1[C@@H]2CC[C@]2(C)C(n3cnc4ccccc43)=C(C=O)C[C@@H]12	Active	Active	Active	–	–	–	–
–	–	–	–	–	–	CC(C)(C)NC(=O)[C@H]1CC[C@H]2[C@@H]3CC[C@H]4NC(=O)C=C[C@]4(C)[C@H]3CC[C@]12C	–	–	–	–	Active	Active	Active
–	inactive	–	Unstable	0.42	83	C[C@]12CC[C@H](OC(=O)c3ccc(Cl)cc3)CC1=CC[C@@H]1[C@@H]2CC[C@]2(C)C(n3cnc4ccccc43)=C(C=O)C[C@@H]12	Active	Active	Active	–	–	–	–
